# Laboratory results: paper PMC8160911, “Anti-Melanogenic Properties of Velutin and Its Analogs” (Molecules, 2021)
# “Also recorded” adds a separate entry of the source. Where two headings read alike, the source gives them in different places.
# Key:
# [1] = tested on: intracellular tyrosinase in B16F10 cells; experiment: Cellular tyrosinase activity in α-MSH-stimulated melanoma cells (L-DOPA to dopachrome in lysates); format: cell-based, murine; settings: 48 h; for effect on α-MSH-mediated intracellular tyrosinase activation / reversal of α-MSH-mediated tyrosinase activation: 10 μM, 100 nM α-MSH
# Procedure: (§1) B16F10 murine melanoma cells were cultured in DMEM medium (Gibco, Gaithersburg, USA) supplemented with 10% heat-inactivated fetal bovine serum (Gibco), 100 units/mL penicillin, and 100 μg/mL streptomycin (Gibco), at 37 °C under humidified 5% CO2.
# Tyrosinase activity in B16 cells was examined on the basis of the amount of dopachrome produced from the catalytic reaction of intracellular tyrosinase. In brief, the melanoma cells were cultured in a 6-well plate for 24 h, followed by treatment with different concentrations of velutin derivatives for a further 48 h, in the presence of 100 nM of α–MSH. After washing twice with ice-cold D-PBS, the cells were lysed in 200 μL of radio-immunoprecipitation assay (RIPA) buffer (Sigma-Aldrich), containing protease and phosphatase inhibitors. After centrifugation of the cell lysate collected from each well at 15,000× g for 15 min, 100 μL of supernatant was mixed with 100 μL of 1 mM L-DOPA in PBS (pH 6.8), followed by incubation for 30 min at 37 °C. The absorbance of dopachrome was measured at 475 nm using the microplate reader. Data were normalized with protein concentration, determined by bicinchoninic acid assay.
# (§2) Figure 3 Effect of velutin derivatives on intracellular melanin synthesis in B16F10 melanoma cells. B16F10 cells were treated with 0.1% DMSO as vehicle, or with 10 μM of each derivative, for 48 h. (A) Melanin content in the B16F10 cells was determined using a photometric method, as described in the Experimental Section. (B) Cellular tyrosinase activity was determined by measuring dopachrome generated by the enzymatic reaction of cell lysates with L-DOPA. Data are expressed as the mean ± SD of three independent experiments (** p < 0.005, *** p < 0.001 as compared to α-MSH-stimulated B16F10 cells).
# B16F10 melanoma cells = experiment: Melanin content in α-MSH-stimulated melanoma cells; format: cell-based, murine; settings: 48 h; for effect on α-MSH-stimulated melanogenesis: 10 μM; for inhibition at 10 µM: Mus musculus, B16-F10, 10 μM, read-out: inhibition of α-MSH-stimulated melanogenesis
# Procedure: as §1
# The melanin content was determined as previously described, with some modifications. The melanoma cells were cultured in a 6-well plate for 24 h. They were treated with the indicated concentrations of velutin derivatives for a further 48 h, in the presence of 100 nM α–MSH. After washing twice with chilled Dulbecco’s phosphate buffered saline supplemented with calcium chloride and magnesium chloride (D-PBS, Gibco), the resulting cells were detached by incubation with trypsin–EDTA solution. After centrifugation at 1000 rpm for 3 min, the cell pellet was dissolved in 150 μL of 1 M NaOH containing 10% DMSO for 1 h at 60 °C. The melanin content was determined by the absorbance at 405 nm, using the microplate reader.
# as §2
# [2] = ABTS free radical scavenging activity; settings: for EC50: 10 min in the dark at RT
# Procedure: In order to evaluate the antioxidant activity of the velutin derivatives, the ABTS radical scavenging activity was determined, as previously described. To generate the ABTS radical, 10 mL of 7 mM ABTS was mixed with 176 μL of 140 mM potassium peroxydisulfate in dH2O, and incubated in the dark at room temperature (RT) for 16 h, prior to use. The ABTS radical solution was diluted with absolute methanol, to obtain an absorbance of near 0.7 at 734 nm. Aliquots of 100 μL of each derivative in the indicated concentration range 2 to 200 μM were added to 100 μL of the diluted ABTS radical solution, and incubated for 10 min in the dark at RT. The absorbance was then measured at 732 nm using a SpectraMax M5 Multi-Mode microplate reader (Molecular Devices, Sunnyvale, CA, USA). The ABTS radical scavenging activity was calculated as follows:ABTS radical scavenging activity (%) = 1 − (Asample/Acontrol) × 100(1)
# [3] = tested on: B16F10 murine melanoma cells; experiment: Cell viability / cytotoxicity by MTT assay; format: cell-based; settings: for death rate: 20 μM
# Procedure: as §1
# The viability of B16F10 cells was determined using an MTT assay, as previously described. In brief, B16F10 cells were seeded in 24-well plates at a density of 1 × 10^4 cells per well. After 24 h, the cells were treated with the indicated concentrations of velutin derivatives for 48 h. The cells were then incubated with MTT solution for 4 h, and the reduced formazan crystals were dissolved in DMSO. The resulting solution was transferred to 96-well plates, and the absorbance was measured at 540 nm, using a SpectraMax M5 Multi-Mode microplate reader.
# Figure 2 Cytotoxicity of velutin derivatives in the B16F10 melanoma cells. B16F10 cells were treated with 0.1% DMSO as vehicle, or with 20 μM of each derivative, for 24 h. Cell viability was determined by the MTT assay, as described in the Experimental Section. Data are expressed as the mean ± SD of three independent experiments (** p < 0.005, *** p < 0.001 compared to the control cells).
# mushroom tyrosinase = biological target: T1, mushroom tyrosinase (Agaricus bisporus, UniProt C7FF04); experiment: In vitro mushroom tyrosinase inhibition (dopachrome formation from L-tyrosine); format: biochemical
# T1 construct: purchased Sigma-Aldrich
# Procedure: The inhibitory effect of velutin derivatives on tyrosinase activity was assessed by the amount of dopachrome synthesized from the catalytic reaction of tyrosinase. […] Then, 100 μL of 0.4 mM L-tyrosine was added to each well, followed by incubation for an additional 10 min at 37 °C.
# [4] = 50 U/mL mushroom tyrosinase, L-tyrosine substrate, read-out: IC50 in Mushroom Tyrosinase Activity
# T1 sequence (C7FF04 1-392 limits assumed): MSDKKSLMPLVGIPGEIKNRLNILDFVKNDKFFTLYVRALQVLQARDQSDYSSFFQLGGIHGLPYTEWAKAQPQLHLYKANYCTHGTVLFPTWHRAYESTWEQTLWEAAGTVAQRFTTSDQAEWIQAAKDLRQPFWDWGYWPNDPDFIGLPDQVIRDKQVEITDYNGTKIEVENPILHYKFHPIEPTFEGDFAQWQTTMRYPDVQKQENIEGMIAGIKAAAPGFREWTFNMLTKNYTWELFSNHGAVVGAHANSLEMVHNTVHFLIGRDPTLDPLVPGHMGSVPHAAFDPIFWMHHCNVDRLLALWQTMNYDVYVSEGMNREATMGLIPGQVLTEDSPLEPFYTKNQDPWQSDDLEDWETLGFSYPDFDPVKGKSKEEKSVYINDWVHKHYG
compound,measurement,setting,value
"COc1cc(OC)c2c(=O)cc(-c3ccc(OC)c(OC)c3)oc2c1 [Compound V10, 2-(3,4-Dimethoxyphenyl)-5,7-dimethoxy-4H-chromen-4-one]",effect on α-MSH-mediated intracellular tyrosinase activation,[1],did not
same,effect on α-MSH-stimulated melanogenesis,B16F10 melanoma cells; 100 nM α-MSH,not significantly changed
same,effect on radical scavenging activity,[2],no significant effect
same,death rate,[3],24.0%
"COc1cc(O)c2c(=O)cc(-c3ccc(O)c(OC)c3)oc2c1 [Compound V1, Velutin]",reversal of α-MSH-mediated tyrosinase activation,[1],87%
same,effect on α-MSH-stimulated melanogenesis,B16F10 melanoma cells; 100 nM α-MSH,completely inhibited
same,EC50,[2],23.1 µM
same,IC50,mushroom tyrosinase; [4],910 µM
"COc1cc(-c2cc(=O)c3c(O)cc(O)cc3o2)ccc1O [Compound V7, Chrysoeriol]",effect on α-MSH-mediated intracellular tyrosinase activation,[1],did not; also recorded: no effect
same,effect on α-MSH-stimulated melanogenesis,B16F10 melanoma cells; 100 nM α-MSH,not significantly changed; also recorded: no effect
same,EC50,[2],22.1 µM
"COc1cc(-c2cc(=O)c3c(O)cccc3o2)ccc1O [Compound V3, 5-Hydroxy-2-(4-hydroxy-3-methoxyphenyl)-4H-chromen-4-one]",reversal of α-MSH-mediated tyrosinase activation,[1],97%
same,inhibition at 10 µM,B16F10 melanoma cells; 100 nM α-MSH,50.7%
same,EC50,[2],23.3 µM
"COc1ccc2c(=O)cc(-c3ccc(O)c(OC)c3)oc2c1 [Compound V2, 2-(4-Hydroxy-3-methoxyphenyl)-7-methoxy-4H-chromen-4-one]",effect on α-MSH-mediated intracellular tyrosinase activation,[1],did not
same,effect on α-MSH-stimulated melanogenesis,B16F10 melanoma cells; 100 nM α-MSH,completely inhibited
same,EC50,[2],21.9 µM
"COc1cc(O)c2c(=O)cc(-c3ccc(O)c(O)c3)oc2c1 [Compound V8, 2-(3,4-Dihydroxyphenyl)-5-hydroxy-7-methoxy-4H-chromen-4-one]",EC50,[2],5.47 µM
same,death rate,[3],71.8%
same,IC50,mushroom tyrosinase; [4],202 µM
"O=c1cc(-c2ccccc2)oc2ccccc12 [Compound V12, 2-Phenylchromen-4-one]",effect on radical scavenging activity,[2],no significant effect
"OC[C@H]1O[C@@H](Oc2ccc(O)cc2)[C@H](O)[C@@H](O)[C@@H]1O [Arbutin, arbutin, reference compound]",EC50,[2],12.7 µM
"COc1cccc(-c2cc(=O)c3c(O)cc(OC)cc3o2)c1 [Compound V5, 5-Hydroxy-7-methoxy-2-(3-methoxyphenyl)-4H-chromen-4-one]",reversal of α-MSH-mediated tyrosinase activation,[1],80%
same,inhibition at 10 µM,B16F10 melanoma cells; 100 nM α-MSH,39.3%
same,EC50,[2],96.6 µM
"O=c1cc(-c2ccc(O)c(O)c2)oc2cc(O)cc(O)c12 [Compound V11, luteolin]",EC50,[2],6.13 µM
same,death rate,[3],69.7%
same,effect on cell viability / cytotoxicity,[3]; concentrations up to 20 μM,cytotoxicity
same,IC50,mushroom tyrosinase; [4],36.7 µM
"COc1cc(O)c2c(=O)cc(-c3ccc(O)cc3)oc2c1 [Compound V4, Genkwanin]",reversal of α-MSH-mediated tyrosinase activation,[1],100%
same,inhibition at 10 µM,B16F10 melanoma cells; 100 nM α-MSH,69.1%
same,EC50,[2],55.7 µM
same,IC50,mushroom tyrosinase,204 µM
"COc1cc(OC)c2c(=O)cc(-c3ccc(O)c(OC)c3)oc2c1 [Compound V6, 2-(4-Hydroxy-3-methoxyphenyl)-5,7-dimethoxy-4H-chromen-4-one]",increase of melanin synthesis,"B16F10 melanoma cells; 10 μM derivative, 100 nM α-MSH",3.0 fold
same,EC50,[2],23.7 µM
"COc1cc(O)c2c(=O)cc(-c3ccc(OC)c(OC)c3)oc2c1 [Compound V9, 2-(3,4-Dimethoxyphenyl)-5-hydroxy-7-methoxy-4H-chromen-4-one]",effect on α-MSH-mediated intracellular tyrosinase activation,[1],did not
same,effect on α-MSH-stimulated melanogenesis,B16F10 melanoma cells; 100 nM α-MSH,not significantly changed
same,EC50,[2],100 µM
same,IC50,mushroom tyrosinase; [4],715 µM
"α-melanocyte stimulating hormone [α–MSH, reference compound]",activation of tyrosinase by α-MSH,[1]; 100 nM α-MSH alone,approximately 1.7 fold
same,increase of melanin content by α-MSH,B16F10 melanoma cells; 100 nM α-MSH alone,1.9 fold
